Values after ≈ are worked out from the molar mass of the structure shown. Read-outs that look alike come from different tables or passages of the source.
Columns and labels:
Assay type in all cases: cell-based
[1] = test system: bacterial strains and fungal strain tested; assay: Bactericidal and fungicidal activities on the strains tested (overall statement); conditions: bacterial strains 1-4 and fungal strain 5
Description: The bactericidal and fungicidal activities of the products according to the invention were studied on different strains.
(§1) A bacterial inoculum is brought into contact with different dilutions of the test product for a limited time of 30 minutes. When the contact time has ended, an aliquot of the bacterial suspension/product mixture is deposited on the surface of a gelose culture medium containing an agent for neutralizing the antibacterial activity of the product. The bactericidal concentration chosen is the minimum concentration of the product which is necessary to prevent bacterial growth. This concentration is expressed in μg/ml.
(§2) Plates containing cups receive different dilutions of the test product. These dilutions of the test product are brought into contact with the different bacterial suspensions using a multiple-site inoculator. After a contact time of 30 minutes, aliquots are transferred by means of this inoculator to the surface of a gelose medium (TSA) placed in petri dishes and containing an agent for neutralizing the activity, namely 20 g of lubrol W, 2.5 g of Tween 80, 2.5 g of sodium thiosulfate and 1% of egg yolk in 1000 ml of TSA (Difco). A reference for the efficacy of the neutralizing agent is prepared for each test product by depositing an aliquot of the dilution of the test product on the surface of the culture medium. After drying, the corresponding inoculum is deposited in the same place. A reference inoculum is prepared on a gelose medium with and without neutralizing agent. The results are read off after 48 hours of incubation at 37° C.
(§3) The antifungal activity of the products according to the invention was also determined using the method described above. The representative strain of yeast selected for the study was Candida albicans CNCM 1180 (strain 5).
By way of comparison, 3-aryloxy-1-piperidinopropan-2-ol derivatives described in the literature, or similar to the compounds described, were prepared and the bactericidal and fungicidal activities of these compounds and of propranolol were measured on the same strains and under the same conditions as for the products according to the invention. The results are reported in Table II after those obtained with the products according to the invention.

[2] = test system: Candida albicans CNCM 1180; assay: Minimum fungicidal concentration, strain 5; conditions: CNCM1180, 0.5 h, read-out: MFC, strain 5
Description: as §1, §2, §3
This is maintained on a gelose medium of Sabouraud Dextrose Agar, marketed by Difco. The technique is identical to that described for studying the antibacterial activity. After 48 hours of culture at 37° C., the microbial growth is harvested with the aid of glass beads and 5 ml of diluent containing 1 g of tryptone and 8.5 g of sodium chloride in 1000 ml of distilled water; a further 5 ml of the diluent are then added. In a spectrophotometer, this suspension gives a 2 to 3% transmission of light at 620 nm. The inoculum corresponds to a 1/10 dilution of this microbial suspension. A 1/100 dilution of this suspension, observed between a microscope slide and cover slip through a lens of magnification 40, should show 10 cells per field, which corresponds to 1 000 000 yeasts per ml.
(§4) They indicate the minimum bactericidal concentrations (MBC) for strains 1, 2, 3 and 4 and the minimum fungicidal concentrations (MFC) for strain 5.

[3] = test system: Staphylococcus aureus CNCM 53154; assay: Minimum bactericidal concentration, 30 min contact, strain 1; conditions: CNCM53154, 0.5 h, read-out: MBC, strain 1
Description: as §1
1 - Staphylococcus aureus CNCM 53154;
(§5) The strains are maintained on Tryptic Soy Agar (TSA) marketed by Difco.
(§6) After 24 hours of culture at 37° C., the microbial growth is harvested with the aid of glass beads and 10 ml of diluent containing 1 g of tryptone and 8.5 g of sodium chloride in 1000 ml of distilled water. The suspension formed is shaken and the percentage transmission of light at 620 nm is measured on a spectrophotometer:
(§7) The bacterial inoculum corresponds to a 1/20 dilution of this bacterial suspension.
as §2, §4

[4] = test system: Pseudomonas aeruginosa CNCM A22; assay: Minimum bactericidal concentration, 30 min contact, strain 3; conditions: CNCMA22, 0.5 h, read-out: MBC, strain 3
Description: as §1
3 - Pseudomonas aeruginosa CNCM A22;
as §5, §6, §7, §2, §4

[5] = test system: Streptococcus faecalis CNCM 5855; assay: Minimum bactericidal concentration, 30 min contact, strain 2; conditions: Enterococcus faecalis, CNCM5855, 0.5 h, read-out: MBC, strain 2
Description: as §1
2 - Streptococcus faecalis CNCM 5855;
as §5, §6, §7, §2, §4

[6] = test system: Escherichia coli CNCM 54127; assay: Minimum bactericidal concentration, 30 min contact, strain 4; conditions: CNCM54127, 0.5 h, read-out: MBC, strain 4
Description: as §1
4 - Escherichia coli CNCM 54127.
as §5, §6, §7, §2, §4

[7] = Candida albicans CNCM 1180, contact time 30 minutes, solubilizing agent given per product
[8] = Staphylococcus aureus CNCM 53154, contact time 30 minutes, solubilizing agent (water, TEG or acetone) given per product
[9] = Pseudomonas aeruginosa CNCM A22, contact time 30 minutes, solubilizing agent given per product
[10] = Streptococcus faecalis CNCM 5855, contact time 30 minutes, solubilizing agent given per product
[11] = Escherichia coli CNCM 54127, contact time 30 minutes, solubilizing agent given per product

Row | Compound | antimicrobial activity (in words) [1] | MFC [2, 7] [µg/mL] | MBC [3, 8] [µg/mL] | MBC [4, 9] [µg/mL] | MBC [5, 10] [µg/mL] | MBC [6, 11] [µg/mL] | MFC ([2]; Candida albicans) [µg/mL] | MBC ([3]; Staphylococcus aureus) [µg/mL] | MBC ([4]; Pseudomonas aeruginosa) [µg/mL] | MBC [5] [µg/mL] | MBC ([6]; Escherichia coli) [µg/mL]
1 | CC1CCN(CC(O)COc2ccc(Br)cc2)CC1.Cl (stereo not drawn) [Product A, 3-(4-bromophenoxy)-1-(4-methylpiperidino)propan-2-ol hydrochloride, reference compound] | no antimicrobial activity | 5000 | > 2000 | 1000 | 1000 | 1000 |  |  |  |  | 
2 | Cl.OC(COc1ccccc1)CN1CCC(c2ccccc2)CC1 (stereo not drawn) [Product B, 3-phenoxy-1-(4-phenylpiperidino)propan-2-ol hydrochloride, reference compound] | no antimicrobial activity | > 1000 | > 1000 | > 1000 | > 1000 | > 1000 |  |  |  |  | 
3 | Cl.OC(CSc1ccc(Br)cc1)CN1CCCCC1 (stereo not drawn) [Product C, 3-(4-bromophenylthio)-1-piperidinopropan-2-ol hydrochloride, reference compound] | no antimicrobial activity | 1000 | > 1000 | > 1000 | > 1000 | > 1000 |  |  |  |  | 
4 | CC(C)NCC(O)COc1cccc2ccccc12 (stereo not drawn) [Propranolol, propranolol, reference compound] | no antimicrobial activity |  |  |  |  |  | 5000 (≈ 19.3 mM) | 5000 (≈ 19.3 mM) | 1000 (≈ 3.86 mM) | 1000 (≈ 3.86 mM) | 1000 (≈ 3.86 mM)
